Test results reported in patent publication US6391261B1, “Device for detecting analytes related to sample pH” (Lifepoint, Inc., priority 2000, dated 2002).

test system: cocaine antibody; assay: Cross-reactivity of the antibody used in the lateral flow competitive immunoassay for cocaine; type: binding; settings: dye labeled cocaine antibody of the saliva test cassette
Text: Each rapid oral fluid test cassette 70 included in this test kit consists of a lateral flow assay strip, a color intensity chart 78, a pH test section 82, and a pH chart 80. The lateral flow assay strip consists of color dye labeled cocaine antibody and a nitrocellulose membrane coated with cocaine-Bovine Serum […] (“BSA”) conjugate. When a saliva sample is applied to the sample section of the cassette, the saliva sample will migrate by capillary movement to the dye-antibody zone and the cocaine-BSA membrane zone. If the sample tested is negative, the dye-antibody will bind with the membrane cocaine-BSA conjugate to form a red band on the membrane.
If the sample tested contains cocaine, cocaine in the sample will bind with the dye-antibody, and thus the binding between the dye-antibody and the membrane cocaine-BSA is prevented. The unbound dye-antibody will migrate away from the membrane to an absorbent pad. As a result, the intensity of the color band appearing on the membrane is inversely proportional to the concentration of cocaine in the saliva sample. A semi-quantitative result of cocaine concentration in the saliva sample is achieved by comparing the color band with a color intensity chart.

Compound	cross-reactivity of the assay antibody as compared with cocaine
CN1[C@H]2CC[C@@H]1[C@@H](C(=O)O)[C@@H](OC(=O)c1ccccc1)C2 [benzoylecgonine]	less than 5%
COc1ccc2c3c1O[C@H]1[C@@H](O)C=C[C@H]4[C@@H](C2)N(C)CC[C@@]341 [codeine]	No significant cross-reactivity
CCO [ethanol]	No significant cross-reactivity
tetrahydrocannabinols	No significant cross-reactivity
CN1CC[C@]23c4c5ccc(O)c4O[C@H]2[C@@H](O)C=C[C@H]3[C@H]1C5 [morphine]	No significant cross-reactivity
CN[C@@H](C)Cc1ccccc1 [methamphetamine]	No significant cross-reactivity
c1ccc(C2(N3CCCCC3)CCCCC2)cc1 [phencyclidine]	No significant cross-reactivity
